In paper PMC6792352, “Limited Chemical Structural Diversity Found to Modulate Thyroid Hormone Receptor in the Tox21 Chemical Library” (Environmental Health Perspectives, 2019):
Where a name gives a salt, the structure may show the parent alone.

Assay: in vitro
Conditions: rat, gh3-tre-luc cells, AC50 (uM) modified / 1000

Point of comparison: `C=CC(C)(CCC=C(C)C)OC(=O)c1ccccc1` (stereo not shown) [Linalyl benzoate], CC50 at 24 h 53.7 µM. Against it:
- Oc1c(Br)c(Br)c(Br)c(Br)c1Br [Pentabromophenol] — 1.6-fold lower, 33.5 µM
- Cc1cc(-c2ccc(/N=N/c3c(S(=O)(=O)O)cc4cc(S(=O)(=O)O)cc(N)c4c3O)c(C)c2)ccc1/N=N/c1c(S(=O)(=O)O)cc2cc(S(=O)(=O)O)cc(N)c2c1O [C.I. Direct Blue 14] — 2.4-fold lower, 22.8 µM
- CCCOc1ccc(C(=O)OCCN(CC)CC)cc1N [Proparacaine hydrochloride] — not separable, > 50 µM
- O=C1c2ccccc2-c2ccccc21 [9-Fluorenone] — higher, > 90 µM
- Cc1ccc(Cl)cc1N [5-Chloro-2-methylaniline] — higher, > 90 µM
- CCCN1CCC[C@@H]2Cc3n[nH]cc3C[C@H]21 [(-)-Quinpirole hydrochloride] — not separable, > 50 µM
- CC1=C(C=O)C(C)(C)CCC1 [beta-Cyclocitral] — higher, > 90 µM
- C=CCOc1ccc(CC(=O)O)cc1Cl [Alclofenac] — not separable, > 50 µM
- Nc1cc(Cl)ccc1Cl [2,5-Dichloroaniline] — higher, > 90 µM
- Nc1nnc(-c2cccc(Cl)c2Cl)c(N)n1 [Lamotrigine] — not separable, > 50 µM
- CCOC(=O)C1=NN(c2ccccc2)C(=O)C1 [Ethyl 5-oxo-1-phenyl-4,5-dihydro-1H-pyrazole-3-carboxylate] — higher, > 90 µM
- CC#CCC(C)[C@H](O)/C=C/[C@@H]1[C@H]2c3cccc(CCCC(=O)O)c3O[C@H]2C[C@H]1O (mixture of isomers) [Beraprost sodium] — not separable, > 50 µM
- N[C@@H](CCC(=O)O)C(=O)O [L-Glutamic acid hydrochloride] — higher, > 90 µM
- COCCO [2-Methoxyethanol] — higher, > 90 µM
- COc1ccc2cc3[n+](cc2c1OC)CCc1cc2c(cc1-3)OCO2 [Berberine chloride] — 1.6-fold higher, 88.5 µM
- CCC1(c2ccccc2)C(=O)NCNC1=O [Primidone] — higher, > 90 µM
- CC(=O)N[C@@H](Cc1ccc(O)cc1)C(=O)O [N-Acetyl-L-tyrosine] — not separable, > 50 µM
- O=C(Nc1ccc(/C=C/c2ccc(NC(=O)c3cc(S(=O)(=O)O)c4cccnc4c3O)cc2S(=O)(=O)O)c(S(=O)(=O)O)c1)c1cc(S(=O)(=O)O)c2cccnc2c1O [Ubistatin A] — not separable, > 50 µM
- CC(=O)NCCCS(=O)(=O)O [Acamprosate calcium] — not separable, > 40 µM
- CC(C)C(C)(C)C(C)(C)C(C)(C)S [tert-Dodecanethiol] — higher, > 90 µM
- NS(=O)(=O)c1cc2c(cc1Cl)NC(C(Cl)Cl)NS2(=O)=O (stereo not shown) [Trichlormethiazide] — not separable, > 20 µM
- c1cc[n+]2c(c1)-c1cccc[n+]1CC2 [Diquat dibromide monohydrate] — not separable, > 50 µM
- ONc1ccccc1 [N-Phenylhydroxylamine] — higher, > 100 µM
- O=[N+]([O-])c1ccc(F)cc1F [2,4-Difluoronitrobenzene] — higher, > 90 µM
- Cc1ccccc1N1C(=O)c2cc(S(N)(=O)=O)c(Cl)cc2NC1C (stereo not shown) [Metolazone] — not separable, > 50 µM
- C[C@H](O)CCO [1,3-Butanediol] — higher, > 90 µM
- Nc1cnn(-c2ccccc2)c(=O)c1Cl [Chloridazon] — higher, > 90 µM
- CC[C@@H](C)[C@H](N)C(=O)O [L-Alloisoleucine] — not separable, > 50 µM
- Cc1nc(Nc2ncc(C(=O)Nc3c(C)cccc3Cl)s2)cc(N2CCN(CCO)CC2)n1 [Dasatinib] — 3.4-fold lower, 15.8 µM
- CCCC(C)c1ccccc1O (stereo not shown) [2-(1-Methylbutyl)phenol] — within 1.5-fold, 54.4 µM
- O=C1CC[C@@H](C(=O)O)N1 [Pidolic acid] — not separable, > 50 µM
- COCCOC(=O)C1=C(C)NC(C)=C(C(=O)OC(C)C)C1c1cccc([N+](=O)[O-])c1 (stereo not shown) [Nimodipine] — not separable, > 50 µM
- CCCCCCCCCCCCCOC(=O)CCSCCC(=O)OCCCCCCCCCCCCC [Di(tridecyl) thiodipropionate] — not separable, > 20 µM
- FC(Cl)(Cl)Cl [Trichlorofluoromethane] — higher, > 90 µM
- O=C(OCC1CO1)C1CCCCC1C(=O)OCC1CO1 (stereo not shown) [1,2-Cyclohexanedicarboxylic acid, bis(oxiranylmethyl) ester] — within 1.5-fold, 44.7 µM
- O=C1CCCCCCCCCCCCCCO1 [Pentadecan-15-olide] — higher, > 90 µM
- CC(=O)[C@@]1(O)CC[C@H]2[C@@H]3C=C(Cl)C4=CC(=O)[C@@H]5C[C@@H]5[C@]4(C)[C@H]3CC[C@@]21C [Cyproterone] — not separable, > 50 µM
- CC(C)=CCO [3-Methyl-2-buten-1-ol] — higher, > 90 µM
- OC1CCCc2ccccc21 (stereo not shown) [1,2,3,4-Tetrahydronaphthalen-1-ol] — higher, > 90 µM
- CCN(CC)c1ccccc1 [N,N-Diethylaniline] — higher, > 90 µM
- CCCCCC=O [Hexanal] — higher, > 100 µM
- NC(=O)OC[C@@H]1[C@H](NC(=O)/C(=N\OCC(=O)O)c2csc(N)n2)C(=O)N1S(=O)(=O)O [Carumonam sodium] — not separable, > 50 µM
- Nc1ccc2cc(S(=O)(=O)O)ccc2c1 [6-Aminonaphthalene-2-sulfonic acid] — higher, > 90 µM
- CC1=CC(=O)CC(C)(C)C1 [Isophorone] — higher, > 90 µM
- CC(=O)NC1(c2cccc(F)c2)CCN(CC[C@@]2(c3ccc(Cl)c(Cl)c3)CN(c3ccccc3)C(=O)CO2)CC1 [SAR102779] — 8.5-fold lower, 6.31 µM
- CCCCCCC(O)CO (stereo not shown) [1,2-Octanediol] — higher, > 90 µM
- O=C(O)c1ccccc1C(=O)O [Phthalic acid] — higher, > 90 µM
- O=C(O)c1ccccn1 [Picolinic acid] — not separable, > 50 µM
- ClCc1cccnc1 [3-(Chloromethyl)pyridine hydrochloride] — higher, > 90 µM
- C[C@@H]1CC(=O)NN=C1c1ccc(NN=C(C#N)C#N)cc1 [Levosimendan] — 3.6-fold lower, 14.8 µM
- O=[N+]([O-])c1ccc(Cl)cc1Cl [2,4-Dichloronitrobenzene] — higher, > 90 µM
- OCCOc1ccccc1 [2-Phenoxyethanol] — higher, > 90 µM
- CCCCOCCO [2-Butoxyethanol] — higher, > 90 µM
- CC1CNc2c(cccc2S(=O)(=O)N[C@@H](CCCNC(=N)N)C(=O)N2CC[C@@H](C)C[C@@H]2C(=O)O)C1 (stereo partly shown) [Argatroban] — not separable, > 50 µM
- CC(C)C[C@H](NC(=O)CNC(=O)[C@H](Cc1ccc(O)cc1)NC(=O)[C@H](CO)NC(=O)[C@H](Cc1c[nH]c2ccccc12)NC(=O)[C@H](Cc1cnc[nH]1)NC(=O)[C@@H]1CCC(=O)N1)C(=O)N[C@@H](CCCNC(=N)N)C(=O)N1CCC[C@H]1C(=O)NCC(N)=O [Gonadorelin hydrochloride] — not separable, > 50 µM
- O=P(O)(O)OC(Cn1cncn1)(Cn1cncn1)c1ccc(F)cc1F [Fosfluconazole] — not separable, > 50 µM
- CCC(COC(=O)CCS)(COC(=O)CCS)COC(=O)CCS [2,2-Bis{[(3-sulfanylpropanoyl)oxy]methyl}butyl 3-sulfanylpropanoate] — higher, > 90 µM
- CC(=O)Nc1c(I)cc(I)c(C(=O)O)c1I [Acetrizoic acid] — not separable, > 50 µM
- O=C1c2ccccc2C(=O)c2c(O)ccc(O)c21 [1,4-Dihydroxyanthracene-9,10-dione] — higher, > 90 µM
- COc1ccc2c3c1O[C@H]1[C@@H](O)C=C[C@H]4[C@@H](C2)N(C)CC[C@@]341 [Codeine hydrochloride] — higher, > 90 µM
- ClC(Cl)(Cl)c1ccc(C(Cl)(Cl)Cl)cc1 [1,4-Bis(trichloromethyl)benzene] — higher, > 90 µM
- C[C@H](O)[C@H](O)[C@H]1CNc2nc(N)[nH]c(=O)c2N1 [(6R)-Tetrahydrobiopterin dihydrochloride] — not separable, > 50 µM
- CCCCc1c(C)nc(NCC)[nH]c1=O [Ethirimol] — higher, > 90 µM
- C1=CCC2CC=CC2C1 (stereo not shown) [3a,4,7,7a-Tetrahydroindene] — higher, > 90 µM
- CC(=O)CC/C=C(\C)CC/C=C(\C)CC/C=C(\C)CCC=C(C)C [Teprenone] — not separable, > 50 µM
- CC[C@H](C)COC(=O)/C=C/c1ccc(N=Cc2ccc(OC)cc2)cc1 [(+)-2-Methylbutyl-4-methoxybenzyladine-4'-aminocyannate] — higher, > 90 µM
- C=CCOC(C)=O [Allyl acetate] — higher, > 90 µM
- O=C1CCCC=CCCCCCCCCCC1 [5-Cyclohexadecen-1-one] — within 1.5-fold, 74.1 µM
- c1ccc2c(c1)[nH]c1cnccc12 [Norharman] — higher, > 90 µM
- NC(=O)NS(=O)(=O)c1ccc(N)cc1 [Sulfacarbamide] — not separable, > 50 µM
- NC/C=C/C(=O)O [(E)-4-amino-2-butenoic acid] — not separable, > 50 µM
- COP(=O)(OC)OC(c1ccc(Cl)cc1)P(=O)(OC)OC (stereo not shown) [Mifobate] — not separable, > 50 µM
- CC(C)N1C(=O)c2ccccc2NS1(=O)=O [Bentazone] — higher, > 90 µM
- CCOC(=O)c1cnc2cc(OCC(C)C)c(OCC(C)C)cc2c1O [Buquinolate] — not separable, > 50 µM

Same assay, conditions: rat, gh3-tre-luc cells, AC50 (uM) modified / 1000, Tox21_110001=Tox21_200065; viability, 1 nM T3 present, 24 h

In the case of `C[N+](C)(C)CCCl` [Chlormequat chloride], the CC50 at 24 h is reported as > 90 µM.

Same assay, conditions: rat, gh3-tre-luc cells, AC50 (uM) modified / 1000, Tox21_110001=Tox21_200297; viability, 1 nM T3 present, 24 h

For `Oc1ccc(Cl)c(Cl)c1Cl` [2,3,4-Trichlorophenol], the CC50 at 24 h was > 100 µM.

Same assay, conditions: rat, gh3-tre-luc cells, AC50 (uM) modified / 1000, Tox21_110001=Tox21_202898; viability, 1 nM T3 present, 24 h

For `CCCCCON=O` [Pentyl nitrite], the CC50 at 24 h was > 90 µM.

Same assay, conditions: rat, gh3-tre-luc cells, AC50 (uM) modified / 1000, Tox21_110001=Tox21_202936; viability, 1 nM T3 present, 24 h

In the case of `CCOC(=O)C(Cl)C(C)=O` (stereo not shown) [Ethyl 2-chloroacetoacetate], the CC50 at 24 h is reported as > 90 µM.

Same assay, conditions: rat, gh3-tre-luc cells, AC50 (uM) modified / 1000, Tox21_110001=Tox21_300700; viability, 1 nM T3 present, 24 h

In the case of `COP(=S)(OC)Oc1nc(Cl)c(Cl)cc1Cl` [Chlorpyrifos-methyl], the CC50 at 24 h is reported as > 90 µM.

Same assay, conditions: rat, gh3-tre-luc cells, AC50 (uM) modified / 1000, Tox21_110001=Tox21_300793; viability, 1 nM T3 present, 24 h

With `CON(C)C(=O)Nc1ccc(Br)c(Cl)c1` [Chlorbromuron] the CC50 at 24 h was > 90 µM.

Same assay, conditions: rat, gh3-tre-luc cells, AC50 (uM) modified / 1000, Tox21_110001=Tox21_302319; viability, 1 nM T3 present, 24 h

With `O=S(=O)(O)C(F)(F)C(F)(F)C(F)(F)C(F)(F)C(F)(F)C(F)(F)C(F)(F)C(F)(F)F` [Lithium perfluorooctanesulfonate] the CC50 at 24 h was 52.3 µM.
